Assay results from US9751858B2, “3-heteroaroylamino-propionic acid derivatives and their use as pharmaceuticals” (SANOFI, priority 2011, dated 2017).

Biological target: T1, Recombinant human cathepsin A (Homo sapiens, UniProt P10619)
T1 construct: Recombinant human cathepsin A (residues 29-480, with a C-terminal 10-His tag); 10-His (C); purchased R&D Systems 1049-SE
T1 sequence (P10619 29-326 limits assumed): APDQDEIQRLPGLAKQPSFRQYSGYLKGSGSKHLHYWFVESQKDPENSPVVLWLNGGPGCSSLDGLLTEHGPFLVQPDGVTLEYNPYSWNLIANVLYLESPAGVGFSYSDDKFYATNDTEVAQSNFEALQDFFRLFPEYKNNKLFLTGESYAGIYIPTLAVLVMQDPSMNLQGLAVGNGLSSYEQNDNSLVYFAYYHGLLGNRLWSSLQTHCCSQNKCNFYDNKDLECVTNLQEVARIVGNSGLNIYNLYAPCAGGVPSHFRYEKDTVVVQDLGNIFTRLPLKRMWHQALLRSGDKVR
T1 sequence (P10619 327-480 limits assumed): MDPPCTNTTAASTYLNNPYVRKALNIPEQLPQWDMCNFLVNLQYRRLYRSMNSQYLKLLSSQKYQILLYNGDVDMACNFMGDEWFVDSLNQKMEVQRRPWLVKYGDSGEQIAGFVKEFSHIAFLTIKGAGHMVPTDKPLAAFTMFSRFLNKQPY
Assay: Cathepsin A inhibitory activity
Assay type: biochemical
Settings: activated recombinant human cathepsin A 833 ng/ml, Bodipy FL-labeled bradykinin 2 μM, pH 5.5, 15 min room temperature
Description: a) Cathepsin a Inhibitory Activity
Briefly, cathepsin A was incubated at 10 μg/ml with cathepsin L at 1 μg/ml in activation buffer (25 mM 2-(morpholin-4-yl)-ethanesulfonic acid (MES), pH 6.0, containing 5 mM dithiothreitol (DTT)) for 15 min at 37° C.
The activated cathepsin A was diluted in assay buffer (25 mM MES, pH 5.5, containing 5 mM DTT) and mixed with the test compound (dissolved in assay buffer containing (v/v) 3% DMSO) or, in the control experiments, with the vehicle in a multiple assay plate. After incubation for 15 min at room temperature, as substrate then bradykinin carrying an N-terminal ®Bodipy FL (4,4-difluoro-5,7-dimethyl-4-bora-3a,4a-diaza-s-indacene-3-propionyl) label (JPT Peptide Technologies GmbH; dissolved in assay buffer) was added to the mixture. […] After incubation for 15 min at room temperature the reaction was stopped by the addition of stop buffer (130 mM 2-(4-(2-hydroxy-ethyl)-piperazin-1-yl)-ethanesulfonic acid, pH 7.4, containing (v/v) 0.013%® Triton X-100, 0.13% Coating Reagent 3 (Caliper Life Sciences), 6.5% DMSO and 20 μM ebelactone B (Sigma, # E0886)).
Uncleaved substrate and product were then separated by a microfluidic capillary electrophoresis on a LabChip® 3000 Drug Discovery System (12-Sipper-Chip; Caliper Life Sciences) and quantified by determination of the respective peak areas. Substrate turnover was calculated by dividing product peak area by the sum of substrate and product peak areas, and the enzyme activity and the inhibitory effect of the test compound thus quantified.

Compound | IC50
Cc1ccccc1[C@H](CC(=O)O)NC(=O)c1noc(-c2ccccc2F)n1 [Example 15, (S)-3-{[5-(2-Fluoro-phenyl)-[1,2,4]oxadiazole-3-carbonyl]-amino}-3-o-tolyl-propionic acid] | 4920 nM
CCc1nc(C(=O)N[C@@H](CC(=O)O)c2ccccc2C)nn1-c1ccccc1Cl [Example 70, (S)-3-{[1-(2-Chloro-phenyl)-5-ethyl-1H-[1,2,4]triazole-3-carbonyl]-amino}-3-o-tolyl-propionic acid] | 166 nM
COc1ccc([C@H](CC(=O)O)NC(=O)c2nc(-c3ccccc3)oc2C)cc1 [Example 23, (S)-3-(4-Methoxy-phenyl)-3-[(5-methyl-2-phenyl-oxazole-4-carbonyl)-amino]-propionic acid] | 2390 nM
Cc1oc(-c2ccccc2F)nc1C(=O)N[C@@H](CC(=O)O)c1cccc(F)c1 [Example 36, (S)-3-(3-Fluoro-phenyl)-3-{[2-(2-fluoro-phenyl)-5-methyl-oxazole-4-carbonyl]-amino}-propionic acid] | 198 nM
CCn1nc(C(=O)N[C@@H](CC(=O)O)c2ccccc2C)cc1-c1ccccc1 [Example 21, (S)-3-[(1-Ethyl-5-phenyl-1H-pyrazole-3-carbonyl)-amino]-3-o-tolyl-propionic acid] | 152 nM
Cc1cccc([C@H](CC(=O)O)NC(=O)c2noc(-c3ccccc3F)n2)c1 [Example 16, (S)-3-{[5-(2-Fluoro-phenyl)-[1,2,4]oxadiazole-3-carbonyl]-amino}-3-m-tolyl-propionic acid] | > 10000 nM
O=C(O)C[C@H](NC(=O)c1nc(-c2ccccc2)oc1C(F)(F)F)c1ccccc1Cl [Example 97, (S)-3-(2-Chloro-phenyl)-3-[(2-phenyl-5-trifluoromethyl-oxazole-4-carbonyl)-amino]-propionic acid] | 7370 nM
Cc1ccccc1[C@H](CC(=O)O)NC(=O)CCc1nc(-c2ccccc2F)no1 [Example 53, (S)-3-{3-[3-(2-Fluoro-phenyl)-[1,2,4]oxadiazol-5-yl]-propionylamino}-3-o-tolyl-propionic acid] | > 10000 nM
Cc1ccccc1[C@H](CC(=O)O)NC(=O)c1nn(C(C)C)c2ccccc12 [Example 6, (S)-3-[(1-Isopropyl-1H-indazole-3-carbonyl)-amino]-3-o-tolyl-propionic acid] | 351 nM
COc1cccc([C@H](CC(=O)O)NC(=O)c2nc(-c3ccccc3)oc2C)c1 [Example 24, (S)-3-(3-Methoxy-phenyl)-3-[(5-methyl-2-phenyl-oxazole-4-carbonyl)-amino]-propionic acid] | 6390 nM
CC(C)c1oc(-c2ccccc2)nc1C(=O)N[C@@H](CC(=O)O)c1ccc(Cl)cc1Cl [Example 105, (S)-3-(2,4-Dichloro-phenyl)-3-[(5-isopropyl-2-phenyl-oxazole-4-carbonyl)-amino]-propionic acid] | 9210 nM
O=C(O)C[C@H](NC(=O)CCc1nc(-c2ccccc2F)no1)c1ccccc1 [Example 31, (S)-3-{3-[3-(2-Fluoro-phenyl)-[1,2,4]oxadiazol-5-yl]-propionylamino}-3-phenyl-propionic acid] | > 10000 nM
Cc1oc(-c2ccccc2F)nc1C(=O)N[C@@H](CC(=O)O)c1ccccc1 [Example 10, (S)-3-{[2-(2-Fluoro-phenyl)-5-methyl-oxazole-4-carbonyl]-amino}-3-phenyl-propionic acid] | 2320 nM
CCc1nc(C(=O)N[C@@H](CC(=O)O)c2ccc(C)cc2)nn1-c1c(Cl)cccc1Cl [Example 107, (S)-3-{[1-(2,6-Dichloro-phenyl)-5-ethyl-1H-[1,2,4]triazole-3-carbonyl]-amino}-3-p-tolyl-propionic acid] | 545 nM
Cc1ccccc1[C@H](CC(=O)O)NC(=O)c1nn(C)cc1NS(=O)(=O)CCc1ccccc1 [Example 121, (S)-3-{[1-Methyl-4-(2-phenyl-ethanesulfonylamino)-1H-pyrazole-3-carbonyl]-amino}-3-o-tolyl-propionic acid] | > 10000 nM

Results, then the compound that gave them:

IC50 | Compound
335 nM | CCCc1nc(C(=O)N[C@@H](CC(=O)O)c2ccc(C)cc2)nn1-c1ccccc1Cl [Example 88, (S)-3-{[1-(2-Chloro-phenyl)-5-propyl-1H-[1,2,4]triazole-3-carbonyl]-amino}-3-p-tolyl-propionic acid]
1750 nM | Cc1oc(-c2ccccc2)nc1C(=O)N[C@@H](CC(=O)O)c1ccc(Cl)cc1Cl [Example 75, (S)-3-(2,4-Dichloro-phenyl)-3-[(5-methyl-2-phenyl-oxazole-4-carbonyl)-amino]-propionic acid]
> 10000 nM | O=C(O)C[C@H](NC(=O)c1noc(-c2ccccc2F)n1)c1cccc(F)c1 [Example 18, (S)-3-(3-Fluoro-phenyl)-3-{[5-(2-fluoro-phenyl)-[1,2,4]oxadiazole-3-carbonyl]-amino}-propionic acid]
> 10000 nM | Cc1ccccc1[C@H](CC(=O)O)NC(=O)c1nn(C)cc1NS(=O)(=O)CC(C)(C)C [Example 95, (S)-3-{[4-(2,2-Dimethyl-propane-1-sulfonylamino)-1-methyl-1H-pyrazole-3-carbonyl]-amino}-3-o-tolyl-propionic acid]
280 nM | Cc1ccc([C@H](CC(=O)O)NC(=O)c2nc(C(C)C)n(-c3ccccc3Cl)n2)cc1 [Example 85, (S)-3-{[1-(2-Chloro-phenyl)-5-isopropyl-1H-[1,2,4]triazole-3-carbonyl]-amino}-3-p-tolyl-propionic acid]
3410 nM | Cc1oc(-c2ccccc2F)nc1C(=O)NC(CC(=O)O)c1ccccc1Cl (stereo not shown) [Example 62, 3-(2-Chloro-phenyl)-3-{[2-(2-fluoro-phenyl)-5-methyl-oxazole-4-carbonyl]-amino}-propionic acid]
8880 nM | CC(C)c1oc(-c2ccccc2)nc1C(=O)NC(CC(=O)O)Cc1ccccc1 (stereo not shown) [Example 45, 3-[(5-Isopropyl-2-phenyl-oxazole-4-carbonyl)-amino]-4-phenyl-butyric acid]
> 10000 nM | O=C(O)C[C@H](NC(=O)CCc1nc(-c2ccccc2F)no1)c1cccc(Cl)c1Cl [Example 112, (S)-3-(2,3-Dichloro-phenyl)-3-{3-[3-(2-fluoro-phenyl)-[1,2,4]oxadiazol-5-yl]-propionylamino}-propionic acid]
128 nM | O=C(O)C[C@H](NC(=O)c1nc(-c2ccccc2)n(-c2ccccc2)n1)c1cccc(Cl)c1 [Example 104, (S)-3-(3-Chloro-phenyl)-3-[(1,5-diphenyl-1H-[1,2,4]triazole-3-carbonyl)-amino]-propionic acid]
1140 nM | Cc1oc(-c2ccccc2F)nc1C(=O)N[C@@H](CC(=O)O)c1cccc(C(F)(F)F)c1 [Example 92, (S)-3-{[2-(2-Fluoro-phenyl)-5-methyl-oxazole-4-carbonyl]-amino}-3-(3-trifluoromethyl-phenyl)-propionic acid]
5310 nM | Cc1oc(-c2ccccc2)nc1C(=O)N[C@@H](CC(=O)O)c1cccc(F)c1 [Example 8, (S)-3-(3-Fluoro-phenyl)-3-[(5-methyl-2-phenyl-oxazole-4-carbonyl)-amino]-propionic acid]
337 nM | O=C(O)C[C@H](NC(=O)CCc1nc(-c2ccccc2F)no1)c1ccccc1F [Example 59, (S)-3-(2-Fluoro-phenyl)-3-{3-[3-(2-fluoro-phenyl)-[1,2,4]oxadiazol-5-yl]-propionylamino}-propionic acid]
353 nM | O=C(O)C[C@H](NC(=O)c1nc(-c2ccccc2)n(-c2ccccc2)n1)c1ccccc1F [Example 90, (S)-3-[(1,5-Diphenyl-1H-[1,2,4]triazole-3-carbonyl)-amino]-3-(2-fluoro-phenyl)-propionic acid]
53.8 nM | Cc1ccccc1[C@H](CC(=O)O)NC(=O)c1nc(-c2ccccc2)n(-c2ccccc2)n1 [Example 84, (S)-3-[(1,5-Diphenyl-1H-[1,2,4]triazole-3-carbonyl)-amino]-3-o-tolyl-propionic acid]
542 nM | Cc1oc(-c2ccccc2F)nc1C(=O)N[C@@H](CC(=O)O)Cc1ccccc1 [Example 29, (R)-3-{[2-(2-Fluoro-phenyl)-5-methyl-oxazole-4-carbonyl]-amino}-4-phenyl-butyric acid]
2180 nM | CC(C)c1oc(-c2ccccc2)nc1C(=O)N[C@@H](CC(=O)O)c1ccccc1F [Example 47, (S)-3-(2-Fluoro-phenyl)-3-[(5-isopropyl-2-phenyl-oxazole-4-carbonyl)-amino]-propionic acid]
